Measured values reported in patent publication US20210238139A1, “MODULATORS OF TRYPTOPHAN CATABOLISM” (E-Therapeutics PLC, priority 2018, published 2021).

Key:
SK-OV-3 cells = assay: Effect of compounds on tryptophan catabolism in SK-OV-3 cell line (inhibition of kynurenine production, LC-MS/MS); type: cell-based; conditions: for IC50: Homo sapiens, SK-OV-3, 24 h, SK-OV-3 cell line, 24 h incubation, kynurenine in supernatant by LC-MS/MS, read-out: IC50 Ranges (ic50 values for inhibition of Kynurenine production)
Outline: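 Kynurenine in supernatants quantified by LC-MS/MS after 24 h compound exposure (37 °C; top 30 μM, eight 3-fold steps, duplicate) in DMEM F-12 containing 6 mg/mL L-tryptophan. Cells pre-plated overnight in McCoy's 5A with 10% FBS. Viability checked in parallel by ATP luminescence.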

[1] = system: IDO1 protein in SK-OV-3 cells; assay: Effect of compounds on IDO1 expression in SK-OV-3 cell line (Western analysis, normalised to GAPDH); type: cell-based; conditions: 24 hours exposure
Description: SK-OV-3 cells are seeded in 24-well plates in McCoy's 5A medium supplemented with 10% FBS at density of 250000 cells per well and incubated overnight at 37° C., 5% CO2, 95% humidity. The following day growth medium is replaced with DMEM F-12 medium containing 6 mg/mL L-tryptophan. Compounds are added to the wells and the plate is incubated for 24 h at 37° C., 5% CO2, 95% humidity. At the end of incubation medium is removed, cells are washed and then lysed in RIPA buffer. Protein concentrations in the samples are determined using BCA method (Thermo Scientific) and adjusted to 0.5 mg/mL. Western analysis is performed on the Wes system (Protein Simple) using IDO1 (Cell Signalling; Cat #12006S) and GAPDH (Abcam, Cat #ab9485) antibodies. Expression of IDO1 is normalised to GAPDH.

TDO2 enzyme = target: T1, TDO2 enzyme (Homo sapiens, UniProt P48775); assay: TDO2 enzyme inhibition assay (hTDO2 assay kit, NFK-green); conditions: TDO2 enzyme 50 nM, tryptophan 200 μM, top concentration 30 μM; read-out: TDO2 Biochemical assay IC50
T1 construct: purchased Netherlands Translational Research Center B.V. NTRC-hTDO-1K
T1 sequence (P48775 whole entry): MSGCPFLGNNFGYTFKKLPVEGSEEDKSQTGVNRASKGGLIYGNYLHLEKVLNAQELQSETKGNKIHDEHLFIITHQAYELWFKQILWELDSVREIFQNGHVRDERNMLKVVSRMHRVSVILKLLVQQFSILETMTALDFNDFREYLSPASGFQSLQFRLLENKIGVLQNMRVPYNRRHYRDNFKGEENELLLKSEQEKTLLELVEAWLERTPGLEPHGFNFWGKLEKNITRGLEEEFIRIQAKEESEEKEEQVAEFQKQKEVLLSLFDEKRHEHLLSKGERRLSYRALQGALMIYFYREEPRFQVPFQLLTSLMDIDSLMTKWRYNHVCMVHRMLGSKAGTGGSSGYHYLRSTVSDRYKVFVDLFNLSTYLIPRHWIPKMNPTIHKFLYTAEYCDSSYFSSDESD
Description: The effect of compounds on TDO2 enzymatic activity was assess by use of an hTDO2 assay kit (Netherlands Translational Research Center B.V., Cat #NTRC-hTDO-1K). TDO2 enzyme and tryptophan substrate are diluted in assay buffer. Compounds are tested at 8 consecutive 3-fold dilutions starting from 30 μM. 267 nL of compound is added per well of a 384-well plate followed by addition of 10 μL of assay buffer. TDO2 enzyme is added at a final concentration of 50 nM and pre-incubated for 60 min at room temperature in the dark. Tryptophan substrate solution is then added at final concentration of 200 μM to all wells and the plate incubated for 15 min at RT in the dark. Finally NFK-green reagent is added at ⅕ of total reaction volume and incubated for 4 h at RT in the dark. After incubation fluorescence is measured at Ex405 nm-Em535 nm using EnVision plate reader.
(§1) IC50 values are determined using GraphPad Prism software 5.04 for Windows by plotting percent of inhibition against log 10 concentrations of compounds using a four-parametric sigmoidal curve with a variable slope.

[2] = system: monocyte-derived dendritic cells; assay: Effect of compounds on tryptophan catabolism in monocyte-derived dendritic cells (kynurenine production); type: cell-based; conditions: Homo sapiens, Dendritic cell; dendritic cells triggered with LPS and IFNγ, 24 h with compound
Description: (§2) Peripheral blood mononuclear cells are isolated from buffy coats from healthy volunteers by Lymphoprep density gradient centrifugation, followed by lysis of residual erythrocytes with isotonic buffer solution of ammonium chloride. CD14+ cells are isolated by positive selection using MACS® technology and CD14 MicroBeads (Miltenyi Biotec) according to manufacturer's instructions. The isolated monocytes are differentiated into dendritic cells by incubation for 5 days in RPMI-1640 medium supplemented with 10% fetal bovine serum (FBS), 50 ng/mL GM-CSF and 35 ng/mL IL-4. After 5 days the DCs are seeded in 96-well plates in DMEM supplemented with 10% charcoal stripped FBS, GM-CSF and IL-4. The following day cells are triggered with LPS and IFNγ. After 24 h of incubation medium is replaced with DMEM F-12 medium supplemented with 6 mg/mL L-tryptophan and 10% charcoal stripped FBS. Compounds are added to the cells and incubated for 24 h at 37° C., 5% CO2, 95% humidity. Compounds are tested at 7 consecutive 4-fold dilutions starting from 30 μM in duplicate.
(§3) At the end of incubation concentration of kynurenine in cell supernatants is determined by LC-MS/MS. In parallel, cell viability is assessed by measurement of ATP by use of CellTiter Glo assay (Promega) according to manufacturer's protocol.
Inhibition of Kyn production is calculated using the following formula:
(1−(Kyn conc. cmpd.−Kyn conc. medium)/(Kyn conc. medium with cells−Kyn conc. medium))·100
IC50 values are determined using GraphPad Prism software 5.04 for Windows, by plotting percent of inhibition against log 10 concentrations of compounds using a four-parametric sigmoidal curve with a variable slope.

[3] = system: monocyte-derived dendritic cells; assay: Cell viability / cytotoxicity in monocyte-derived dendritic cells (ATP, CellTiter Glo); type: cell-based, human; conditions: 24 h, unit assumed
Description: as §2, §3
Cell viability results are analysed in Microsoft Excel and expressed as fold change over untreated control.

IDO1 enzyme = target: T2, IDO1 enzyme (Homo sapiens, UniProt P14902); assay: IDO1 enzyme inhibition assay (hIDO assay kit, NFK-green); conditions: IDO1 enzyme 25 nM, tryptophan 100 μM, top concentration 30 μM; read-out: IDO1 Biochemical assay IC50
T2 construct: purchased Netherlands Translational Research Center B.V. NTRC-hIDO-1K
T2 sequence (P14902 whole entry): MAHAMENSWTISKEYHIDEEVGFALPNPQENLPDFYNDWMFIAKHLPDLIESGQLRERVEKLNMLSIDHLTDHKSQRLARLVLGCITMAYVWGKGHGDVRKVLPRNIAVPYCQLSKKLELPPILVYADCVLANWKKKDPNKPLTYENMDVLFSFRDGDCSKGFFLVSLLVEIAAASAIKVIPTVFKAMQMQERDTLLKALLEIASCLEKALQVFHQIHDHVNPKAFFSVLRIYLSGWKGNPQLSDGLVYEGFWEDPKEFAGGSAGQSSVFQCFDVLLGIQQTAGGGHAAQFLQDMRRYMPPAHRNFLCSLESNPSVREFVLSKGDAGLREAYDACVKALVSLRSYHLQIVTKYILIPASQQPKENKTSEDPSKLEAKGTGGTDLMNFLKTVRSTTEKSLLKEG
Description: The effect of compounds on IDO1 enzymatic activity was assessed by use of a hIDO assay kit (Netherlands Translational Research Center B.V., Cat #NTRC-hIDO-1K). IDO1 enzyme and tryptophan substrate are diluted in assay buffer. Compounds are tested at 8 consecutive 3-fold dilutions starting from 30 μM. 267 nL of compound is added per well of a 384-well plate followed by addition of 10 μL of assay buffer. IDO1 enzyme is added at a final concentration of 25 nM and pre-incubated for 30 min at room temperature in the dark. Tryptophan substrate solution is then added at final concentration of 100 μM to all wells and the plate incubated for 60 min at RT in the dark. Finally NFK-green reagent is added at ⅕ of total reaction volume and incubated for 4 h at RT in the dark. After incubation fluorescence is measured at Ex405 nm-Em535 nm using EnVision plate reader.
as §1

| IC50 (SK-OV-3 cells) | IC50 (TDO2 enzyme) | IC50 [2] | IC50 (IDO1 enzyme) | SMILES | inhibition of kynurenine production by SKOV-3 (FIG. 1b) (SK-OV-3 cells; SKOV-3 cells, 24 hours exposure) | reduction in IDO1 protein in SKOV-3 cells (FIG. 1a) [1] | Cell viability at 30 uM (% of untreated control) [3] |
| --- | --- | --- | --- | --- | --- | --- | --- |
| < 100 nM | > 30000 nM |  |  | C#Cc1ccc(NC(=O)N(Cc2ccc(C)o2)C2CCCC2)cc1 [Compound 102, 1-cyclopentyl-3-(4-ethynylphenyl)-1-[(5-methyl-2-furyl)methyl]urea] | dose-dependent inhibition of kynurenine production | dose-dependent reduction in IDO1 protein |  |
| < 100 nM | > 30000 nM | 40 nM | > 30000 nM | Cc1ccc(CN(C(=O)Nc2ccc(Cl)cc2)C2CCCC2)o1 [Compound 137, 3-(4-chlorophenyl)-1-cyclopentyl-1-[(5-methyl-2-furyl)methyl]urea] |  |  | 88% |
| 100 to 500 nM | > 30000 nM | 380 nM | > 30000 nM | Cc1ncc(CN(C(=O)Nc2ccc(Cl)cc2)C2CCCC2)o1 [Compound 144, 3-(4-chlorophenyl)-1-cyclopentyl-1-[(2-methyloxazol-5-yl)methyl]urea] |  |  | 109% |
